Data published in patent US20200404914A1, “HERBICIDALLY ACTIVE BICYCLIC BENZAMIDES” (Bayer Aktiengesellschaft, priority 2018, published 2020).

Assays:
[1] = system: monocotyledonous and dicotyledonous weeds; assay: Post-emergence herbicidal action (greenhouse pot test, visual rating after about 3 weeks); format: in vivo; conditions: for Herbicidal activity ABUTH (Abutilon theophrasti) / Herbicidal activity AMARE (Amaranthus retroflexus) / Herbicidal activity ECHCG (Echinochloa crus-galli) / Herbicidal activity VIOTR (Viola tricolor) / Herbicidal activity MATIN (Matricaria inodora) / Herbicidal activity SETVI (Setaria viridis) / Herbicidal activity STEME (Stellaria media) / Herbicidal activity VERPE (Veronica persica): post-emergence (PO)
Protocol: In the tables below, the following abbreviations are used: Undesired Plants/Weeds: [table] 2. Post-Emergence Herbicidal Action and Crop Plant Compatibility Seeds of monocotyledonous and dicotyledonous weeds and crop plants are placed in sandy loam in plastic or organic planting pots, covered with soil and cultivated in a greenhouse under controlled growth conditions. 2 to 3 weeks after sowing, the test plants are treated at the one-leaf stage. The compounds of the invention, formulated in the form of wettable powders (WP) or as emulsion concentrates (EC), are then sprayed onto the green parts of the plants as aqueous suspension or emulsion with addition of 0.5% additive at a water application rate of […] (converted). After the test plants had been kept in the greenhouse under optimum growth conditions for about 3 weeks, the activity of the preparations is rated visually in comparison to untreated controls. The tables below show the herbicidal activity of numerous compounds according to the invention against important harmful plants. For example, 100% activity=the plants have died, 0% activity=like control plants.

[2] = system: monocotyledonous and dicotyledonous weed plants; assay: Pre-emergence herbicidal action (greenhouse pot test, visual scoring after about 3 weeks); format: in vivo; conditions: for Herbicidal activity ABUTH (Abutilon theophrasti) / Herbicidal activity AMARE (Amaranthus retroflexus) / Herbicidal activity ECHCG (Echinochloa crus-galli) / Herbicidal activity MATIN (Matricaria inodora) / Herbicidal activity STEME (Stellaria media) / Herbicidal activity VERPE (Veronica persica) / Herbicidal activity VIOTR (Viola tricolor) / Herbicidal activity AVEFA (Avena fatua) / Herbicidal activity CYPES (Cyperus esculentus) / Herbicidal activity PHBPU (Ipomoea purpurea) / Herbicidal activity POLCO (Polygonum convolvulus) / Herbicidal activity SETVI (Setaria viridis): pre-emergence (PE)
Text: In the tables below, the following abbreviations are used: Undesired Plants/Weeds: [table] 1. Pre-Emergence Herbicidal Action and Crop Plant Compatibility Seeds of monocotyledonous and dicotyledonous weed plants and crop plants are placed in plastic or organic planting pots and covered with soil. The compounds of the invention, formulated in the form of wettable powders (WP) or as emulsion concentrates (EC), are then applied onto the surface of the covering soil as aqueous suspension or emulsion with addition of 0.5% additive at a water application rate of […] (converted). After the treatment, the pots are placed in a greenhouse and kept under good growth conditions for the trial plants. After about 3 weeks, the effect of the preparations is scored visually in comparison with untreated controls as percentages. The tables below show the herbicidal activity of numerous compounds according to the invention against important harmful plants. For example, 100% activity=the plants have died, 0% activity=like control plants.

[3] = application rate 20, about 3 weeks
[4] = application rate 80, about 3 weeks
[5] = post-emergence comparative experiment, dosage 80 g/ha
[6] = application rate 320, about 3 weeks
[7] = pre-emergence comparative experiment, dosage 320 g/ha

SMILES | Herbicidal activity ABUTH (Abutilon theophrasti) [1, 4] | Herbicidal activity AMARE (Amaranthus retroflexus) [1, 4] | Herbicidal activity ECHCG (Echinochloa crus-galli) [1, 4] | Herbicidal activity MATIN (Matricaria inodora) [1, 4] | Herbicidal activity SETVI (Setaria viridis) [1, 4] | Herbicidal activity STEME (Stellaria media) [1, 4] | Herbicidal activity VERPE (Veronica persica) [1, 4] | Herbicidal activity VIOTR (Viola tricolor) [1, 4] | Herbicidal activity ABUTH (Abutilon theophrasti) [2, 6] | Herbicidal activity AMARE (Amaranthus retroflexus) [2, 6] | Herbicidal activity AVEFA (Avena fatua) [2, 6] | Herbicidal activity CYPES (Cyperus esculentus) [2, 6] | Herbicidal activity ECHCG (Echinochloa crus-galli) [2, 6] | Herbicidal activity MATIN (Matricaria inodora) [2, 6] | Herbicidal activity PHBPU (Ipomoea purpurea) [2, 6] | Herbicidal activity POLCO (Polygonum convolvulus) [2, 6] | Herbicidal activity SETVI (Setaria viridis) [2, 6] | Herbicidal activity STEME (Stellaria media) [2, 6] | Herbicidal activity VERPE (Veronica persica) [2, 6] | Herbicidal activity VIOTR (Viola tricolor) [2, 6] | other results
Cn1nnnc1NC(=O)c1ccc(C(F)(F)F)c2c1SCCCS2 [2-5] |  |  |  |  |  |  |  |  |  |  |  |  |  |  |  |  |  |  |  |  | Herbicidal activity ABUTH (Abutilon theophrasti) [1, 3]: 90%; Herbicidal activity AMARE (Amaranthus retroflexus) [1, 3]: 90%; Herbicidal activity ECHCG (Echinochloa crus-galli) [1, 3]: 90%; Herbicidal activity VIOTR (Viola tricolor) [1, 3]: 80%; Herbicidal activity ABUTH (Abutilon theophrasti) [2, 4]: 100%; Herbicidal activity AMARE (Amaranthus retroflexus) [2, 4]: 100%; Herbicidal activity ECHCG (Echinochloa crus-galli) [2, 4]: 100%; Herbicidal activity MATIN (Matricaria inodora) [2, 4]: 100%; Herbicidal activity STEME (Stellaria media) [2, 4]: 100%; Herbicidal activity VERPE (Veronica persica) [2, 4]: 100%; Herbicidal activity VIOTR (Viola tricolor) [2, 4]: 100%
Cn1nnnc1NC(=O)c1ccc(C(F)(F)F)c2c1OCCCS2 [2-13, 6-(trifluoromethyl)-3,4-dihydro-2H-1,5-benzoxathiepine-N-(1-methyltetrazol-5-yl)-8-carboxamide] | 100% | 100% | 100% | 80% | 100% | 100% | 100% | 100% | 100% | 100% | 100% | 90% | 100% | 100% | 100% | 100% | 100% | 100% | 100% | 100% | Herbicidal action against ABUTH (Abutilon theophrasti) [1, 5]: 100%; Herbicidal action against ALOMY (Alopecurus myosuroides) [1, 5]: 90%; Herbicidal action against AVEFA (Avena fatua) [1, 5]: 100%; Herbicidal action against PHPBU [1, 5]: 90%; Herbicidal action against POLCO (Polygonum convolvulus) [1, 5]: 80%; herbicidal activity compared to that of compound No. A-117 ([1]; post-emergence, comparative experiment, numerous harmful plants): superiority of the compound according to the invention was demonstrated clearly; Herbicidal action against ABUTH (Abutilon theophrasti) [2, 7]: 100%; Herbicidal action against ALOMY (Alopecurus myosuroides) [2, 7]: 100%; Herbicidal action against AVEFA (Avena fatua) [2, 7]: 100%; Herbicidal action against MATIN (Matricaria inodora) [2, 7]: 100%; Herbicidal action against SETVI (Setaria viridis) [2, 7]: 100%; herbicidal activity compared to that of compound No. A-117 ([2]; pre-emergence, comparative experiment, numerous harmful plants): superiority of the compound according to the invention was demonstrated clearly
Cn1nnnc1NC(=O)c1ccc(C(F)(F)F)c2c1OCCC[S+]2[O-] (stereo not drawn) [2-16] | 100% | 100% | 100% | 100% | 90% | 100% | 90% | 100% | 100% | 100% | 80% | 100% | 100% | 100% | 80% | 80% | 100% | 100% | 100% | 100% | 
Cn1nnnc1NC(=O)c1ccc(C(F)(F)F)c2c1OCCCS2(=O)=O [2-19] | 100% | 100% | 100% | 90% | 90% | 100% | 100% | 100% | 100% | 100% | 80% | 100% | 100% | 100% | 100% | 90% | 100% | 100% | 100% | 100% | 
Cn1nnnc1NC(=O)c1ccc(C(F)(F)F)c2c1[S+]([O-])CCCS2 (stereo not drawn) [2-76] |  |  |  |  |  |  |  |  |  |  |  |  |  |  |  |  |  |  |  |  | Herbicidal activity ABUTH (Abutilon theophrasti) [1, 3]: 80%; Herbicidal activity ECHCG (Echinochloa crus-galli) [1, 3]: 90%; Herbicidal activity AMARE (Amaranthus retroflexus) [2, 4]: 90%; Herbicidal activity VIOTR (Viola tricolor) [2, 4]: 90%
